Assays:
[1] = tested on: blood-brain barrier; assay: Claustrophobia test in gas chamber, EBD extravasation; format: in vivo, rats; conditions: breathing 100% O2 vs normal air, P>0.05, FIG. 6A
From the text: FIGS. 6A and 6B show the effects of increased pO2 on the blood-brain barrier permeability. FIG. 6A is a quantitative diagram showing the detection amount of EBD in different districts of the brain of the rats in the claustrophobia test. FIG. 6B is a quantitative diagram showing the detection amount of EBD in the blood of the rats in the claustrophobia test. The rats are placed in gas chambers and allowed to breathe either normal air or 100% O2, and then performing the claustrophobia test.

[2] = tested on: blood-brain barrier; assay: Hypoventilation respiratory treatment, EBD extravasation; format: in vivo, rats; conditions: hypoventilation (50 BPM) with 100% O2; FIGS. 8A, 8B
Procedure: A regional metabolic acidosis is caused by a local brain activity, but more global […] can also be induced by a hypoventilation. Given that increased blood pO2 substantially potentiates the blood-brain barrier opening by CO2/H^+, we further examine whether increasing pO2 in the rats subjected to the hypoventilation could open the blood-brain barrier in this example. The rats are injected with EBD first, and the rats are grouped and treated with a respiratory treatment by different levels of ventilation. Next, quantifying the EBD extravasation into different districts of the brain of the rats after the respiratory treatment. The respiratory treatment are a physiologically rate, the hypoventilation and a general ventilation, wherein a respiratory rate of the physiologically rate is 90 BPM (breath per minute) by using a tracheotomy, the respiratory rate of the general ventilation is 80 BPM, and the respiratory rate of the hypoventilation is 50 BPM. […]
The data of the respiratory treatment is shown in Table 4 as follows and FIG. 8A-8C. […] FIG. 8B is a quantitative diagram showing the detection amount of EBD in different districts of the brain and the blood of the rats in the hypoventilation. FIG. 8C is a quantitative diagram showing the detection amount of EBD in different districts of the brain and the blood of the rats increased a ventilation rate.

[3] = Inactivity (sedation) of rats during the forced swimming test
Procedure: Prostaglandin and serotonin are previously implicated in stress-mediated blood-brain barrier disruption. To examine whether prostaglandin and serotonin could contribute to opening of the blood-brain barrier, the rats are treated with indomethacin (10 mg/kg, i.p.) and cyproheptadine (15 mg/kg, i.p.) and then performing the forced swimming test, wherein indomethacincan can reduce the synthesis of prostaglandin and cyproheptadine competes with serotonin in that it acts on a postsynaptic receptor.

[4] = tested on: blood-brain barrier; assay: Forced swim test, EBD extravasation after drug treatment; format: in vivo, rats; conditions: EIPA 5 mg/kg i.p.; zoniporide 20 mg/kg i.p.; FIG. 4C
From the text: In a forced swim test, the rats are forced to swim in an opaque tank with limited spatial information, wherein a diameter, a height and a depth of the opaque tank is 43 cm, 54 cm and 29 cm, respectively.
To examine whether the NHE contributes to metabolic blood-brain barrier disruption during stressful activity, we administer either a vehicle (i.p.) or an NHE inhibitor (i.p.) to EBD-treated rats prior to forced swimming and quantify the EBD extravasation into the brain.

[5] = indomethacin 10 mg/kg i.p., cyproheptadine 15 mg/kg i.p., EIPA 5 mg/kg i.p.

Row | Compound | sedation at the dose used ([3]; rat, in vivo) | EBD extravasation into the motor cortex during the forced swimming test [4] | further results
1 | O=O [100% O2] | – | – | increase in blood-brain barrier permeability (EBD extravasation in motor cortex, caudate/putamen, hippocampus) [1]: not significant; blood-brain barrier opening [2]: opens the blood-brain barrier
2 | CN1CCC(=C2c3ccccc3C=Cc3ccccc32)CC1 [cyproheptadine] | marked sedation | – | –
3 | CCN(c1nc(N)c(C(=O)NC(=N)N)nc1Cl)C(C)C [EIPA, Ethylisopropyl amiloride] | – | attenuates | number of the rats that remain inactive during the forced swimming test [3, 5]: 0/6; sedation at the dose used [3, 5]: not sedative
4 | N=C(N)NC(=O)c1cnn(-c2cccc3ncccc23)c1C1CC1 [zoniporide] | – | attenuates | –
5 | COc1ccc2c(c1)c(CC(=O)O)c(C)n2C(=O)c1ccc(Cl)cc1 [indomethacin] | marked sedation | – | –
